# Source: US20260138985A1, “Azepino-Indoles for the Treatment of Neurological and Psychiatric Disorders” (Terran Biosciences Inc., priority 2021, published 2026)
# Key:
# 5-HT2A receptor = target: T1, 5-HT2A receptor (Homo sapiens, UniProt P28223); test: Calcium mobilization assay, agonist format, 5-HT2A receptor; format: cell-based; conditions: read-out: 5-HT2A agonist Efficacy @ 10 µM
# T1 construct: host or cells: unnamed cell lines
# Experimental: (§1) Protocol—in vitro testing at select 5-hydroxytryptamine (5-HT; serotonin) receptors was conducted.
# (§2) • 1. Cell lines were expanded from freezer stocks according to standard procedures. • 2. Cells were seeded in a total volume of 20 μL into black-walled, clear-bottom, Poly-D-lysine coated 384-well microplates and incubated at 37° C. for the appropriate time prior to testing.
# (§3) • 1. Assays were performed in 1×Dye Loading Buffer consisting of 1× Dye, 1× Additive A and 2.5 mM Probenecid in HBSS/20 mM Hepes. Probenicid was prepared fresh. • 2. Cells were loaded with dye prior to testing. Media was aspirated from cells and replaced with 20 μL Dye Loading Buffer. • 3. Cells were incubated for 30-60 minutes at 37° C.
# (§4) • 1. For agonist determination, cells were incubated with sample to induce response. • 2. After dye loading, cells were removed from the incubator and 10 μL HBSS/20 mM Hepes was added. 3× vehicle was included in the buffer when performing agonist dose curves to define • the EC80 for subsequent antagonist assays. Cells were incubated for 30 minutes at room temperature in the dark to equilibrate plate temperature. • 3. Intermediate dilution of sample stocks was performed to generate 4× sample in assay buffer. • 4. Compound agonist activity was measured on a FLIPR Tetra (MDS). Calcium mobilization was monitored for 2 minutes and 10 μL 4× sample in HBSS/20 mM Hepes was added to the cells 5 seconds into the assay.
# (§5) • 1. Compound activity was analyzed using CBIS data analysis suite (ChemInnovation, CA). • 2. For agonist mode assays, percentage activity is calculated using the following formula: % Activity=100%×(mean RFU of test sample−mean RFU of vehicle control)/(mean MAX RFU control ligand −mean RFU of vehicle control). • 3. For positive allosteric mode assays, percentage modulation was calculated using the following formula: % Modulation=100%×((mean RFU of test sample−mean RFU of EC20 control)/(mean RFU of MAX control ligand −mean RFU of EC20 control)). • 4. For antagonist and negative allosteric modulation mode assays, percentage inhibition is calculated using the following formula: % Inhibition=100%×(1−(mean RFU of test sample−mean RFU of vehicle control)/(mean RFU of EC80 control−mean RFU of vehicle control)).
# (§6) As discussed above, agonism, or partial agonism, of the 5-HT2A receptor (also known as positive allosteric modulation, or 5-HT2A modulation) is useful for the treatment of neurological and psychiatric disorders. For example, 5-HT2A agonism has been correlated with the promotion of neural plasticity (Ly et al., 2018). Agonism of the 5-HT2B receptor has been associated with unwanted cardiac valvulopathy side-effects, a form of cardio-toxicity (Rothman et al., Circulation. 2000, 102, 2836-2841; Fitzgerald et al., Molecular Pharmacology 2000, 57, 75-81). […] Antagonists of the 5-HT2C receptor are also useful for the treatment of neurological and psychiatric disorders (Kennett et al., Neuropharmacology 1997, 36, 609-620).
# 5-HT2B receptor = target: T2, 5-HT2B receptor (Homo sapiens, UniProt P41595); test: Calcium mobilization assay, agonist format, 5-HT2B receptor; format: cell-based; conditions: read-out: 5-HT2B agonist Efficacy @ 5 µM
# T2 construct: host or cells: unnamed cell lines
# Experimental: as §1, §2, §3, §4, §5, §6
# 5-HT2C receptor = target: T3, 5-HT2C receptor (Homo sapiens, UniProt P28335); test: Calcium mobilization assay, antagonist format, 5-HT2C receptor; format: cell-based; parameters: dose or concentration left out as unconfirmed
# T3 construct: host or cells: unnamed cell lines
# T3 sequence (P28335 33-458): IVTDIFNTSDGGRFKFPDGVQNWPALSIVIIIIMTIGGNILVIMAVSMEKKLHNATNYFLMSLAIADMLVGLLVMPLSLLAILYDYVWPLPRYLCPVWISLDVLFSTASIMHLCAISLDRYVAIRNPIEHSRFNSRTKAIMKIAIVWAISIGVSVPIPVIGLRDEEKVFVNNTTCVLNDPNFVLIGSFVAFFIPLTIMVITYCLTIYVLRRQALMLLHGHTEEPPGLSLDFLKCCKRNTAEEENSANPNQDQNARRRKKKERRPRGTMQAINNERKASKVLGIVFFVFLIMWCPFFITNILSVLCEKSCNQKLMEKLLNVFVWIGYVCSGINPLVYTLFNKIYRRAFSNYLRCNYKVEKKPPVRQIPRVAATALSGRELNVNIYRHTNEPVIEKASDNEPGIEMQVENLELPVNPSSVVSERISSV
# Experimental: as §1, §2, §3
# • 1. For antagonist determination, cells were pre-incubated with sample followed by agonist challenge at the EC80 concentration. • 2. Intermediate dilution of sample stocks was performed to generate 3× sample in assay buffer. • 3. After dye loading, cells were removed from the incubator and […] 3× sample was added. Cells were incubated for 30 minutes at room temperature in the dark to equilibrate plate temperature. Vehicle concentration was 1%. • 4. Compound antagonist activity was measured on a FLIPR Tetra (MDS). Calcium mobilization was monitored for 2 minutes and 10 μL EC80 agonist in HBSS/20 mM Hepes was added to the cells 5 seconds into the assay.
# as §5, §6
# [1] = Metabolic stability in human liver microsomes; format: in vitro ADME; conditions: for microsomal CLint at 0.2 μM: pH 7.4, intrinsic clearance, read-out: CLint(mic); for CLint scaled at 0.2 μM: pH 7.4, scaled from CLint(mic)
# Experimental: Microsomal Assay: Human liver microsomes (20 mg/mL) are obtained from Xenotech, LLC (Lenexa, KS). β-nicotinamide adenine dinucleotide phosphate, reduced form (NADPH), magnesium chloride (MgCl2), and dimethyl sulfoxide (DMSO) are purchased from Sigma-Aldrich.
# Determination of Metabolic Stability: 7.5 mM stock solutions of test compounds of the above structural formula (e.g., of an embodiment or aspect of embodiment thereof described herein), or pharmaceutically acceptable salt thereof, are prepared in DMSO. […] The diluted microsomes are added to wells of a 96-well deep-well polypropylene plate in triplicate. […] Reactions are initiated by addition of pre-warmed NADPH solution. The final reaction volume is 0.5 mL and contains 4.0 mg/mL human liver microsomes, 0.2 μM test compound, and 2 mM NADPH in 0.1 M potassium phosphate buffer, pH 7.4, and 3 mM MgCl2. The reaction mixtures are incubated at 37° C., and […] aliquots are removed at 0, 5, 10, 20, and 30 minutes and added to shallow-well 96-well plates which contain […] of ice-cold ACN (acetonitrile) with internal standard to stop the reactions. The plates are stored at 4° C. for 20 minutes after which […] of water is added to the wells of the plate before centrifugation to pellet precipitated proteins. Supernatants are transferred to another 96-well plate and analyzed for amounts of parent remaining by LC-MS/MS using an Applied Bio-systems API 4000 mass spectrometer. The same procedure is followed for the non-deuterated counterpart of the compound and the positive control, 7-ethoxycoumarin (1 μM). Testing is done in triplicate.
# Data analysis: The in vitro Ti/s for test compounds are calculated from the slopes of the linear regression of % parent remaining (In) vs incubation time relationship.
# [formula] • k=−[slope of linear regression of % parent remaining (In) vs incubation time] • The apparent intrinsic clearance is calculated using the following equation: […]
# Data analysis is performed using Microsoft Excel Software.
# [2] = values marked * average of two experiments
# T1 sequence (P28223 whole entry): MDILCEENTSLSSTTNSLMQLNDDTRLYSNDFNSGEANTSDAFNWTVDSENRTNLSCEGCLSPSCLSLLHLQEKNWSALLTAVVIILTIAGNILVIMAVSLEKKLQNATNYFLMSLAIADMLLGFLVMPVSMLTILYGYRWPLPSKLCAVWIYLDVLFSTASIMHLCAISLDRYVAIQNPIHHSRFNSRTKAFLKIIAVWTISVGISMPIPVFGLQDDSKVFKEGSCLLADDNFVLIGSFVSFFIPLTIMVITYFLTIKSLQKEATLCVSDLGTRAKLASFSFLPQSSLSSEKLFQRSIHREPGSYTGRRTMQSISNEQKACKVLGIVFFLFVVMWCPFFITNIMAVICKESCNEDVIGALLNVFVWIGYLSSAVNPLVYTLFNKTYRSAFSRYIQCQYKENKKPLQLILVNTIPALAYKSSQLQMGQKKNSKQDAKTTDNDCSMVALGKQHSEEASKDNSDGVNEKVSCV
# T2 sequence (P41595 whole entry): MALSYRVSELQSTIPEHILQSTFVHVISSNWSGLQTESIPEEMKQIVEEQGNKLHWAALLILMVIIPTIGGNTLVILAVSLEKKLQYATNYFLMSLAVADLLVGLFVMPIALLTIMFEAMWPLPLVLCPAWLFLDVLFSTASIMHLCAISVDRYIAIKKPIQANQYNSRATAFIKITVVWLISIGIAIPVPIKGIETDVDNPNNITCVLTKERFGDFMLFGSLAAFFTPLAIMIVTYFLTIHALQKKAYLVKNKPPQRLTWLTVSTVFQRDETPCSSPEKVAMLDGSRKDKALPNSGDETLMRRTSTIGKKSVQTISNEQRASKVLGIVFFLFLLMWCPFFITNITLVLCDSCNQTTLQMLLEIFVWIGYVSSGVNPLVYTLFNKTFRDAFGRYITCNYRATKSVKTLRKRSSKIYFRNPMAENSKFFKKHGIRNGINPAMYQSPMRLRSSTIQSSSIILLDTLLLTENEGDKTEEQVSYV
SMILES,activation at 10 µM (5-HT2A receptor) [%],activation at 5 µM (5-HT2B receptor) [%],inhibition (5-HT2C receptor) [%],"difference in half-life and intrinsic clearance versus comparator ([1]; Compound 163 vs 8-methoxy-1,2,3,4,5,6-hexahydroazepino[4,5-b]indole, Compounds 1, 2 and 3 vs TBG)","half-life at 0.2 μM ([1]; pH 7.4, half life, values marked * average of two experiments) [h]","microsomal CLint at 0.2 μM [1, 2] [µL/min/mg]","CLint scaled at 0.2 μM [1, 2] [mL/min/kg]","CLint(mic) ([1]; intrinsic clearance, values marked * average of two experiments)"
"COc1ccc2c3c([nH]c2c1)CCN(CCS(C)(=O)=O)CC3 [Compound 143, 8-methoxy-3-(2-methylsulfonylethyl)-2,4,5,6-tetrahydro-1H-azepino[4,5-b]indole]",42.1,-0.1,97.2,–,–,–,–,–
"COc1ccc2c3c([nH]c2c1)CCN(C1CC1)CC3 [Compound 164, 3-cyclopropyl-8-methoxy-2,4,5,6-tetrahydro-1H-azepino[4,5-b]indole]",61,2.7,100,–,–,–,–,–
"CN1CCc2[nH]c3cc(OC4CC4)ccc3c2CC1 [Compound 117, 8-(cyclopropoxy)-3-methyl-2,4,5,6-tetrahydro-1H-azepino[4,5-b]indole]",10.4,1.7,99.7,–,–,–,–,–
"CN1CCc2[nH]c3cccc(C#N)c3c2CC1 [Compound 138, 3-methyl-2,4,5,6-tetrahydro-1H-azepino[4,5-b]indole-10-carbonitrile]",15.4,-0.4,100,–,–,–,–,–
"[2H]C([2H])([2H])Oc1ccc2c3c([nH]c2c1)CCN(C1CC1)CC3 [Compound 146, 3-cyclopropyl-8-(trideuteriomethoxy)-2,4,5,6-tetrahydro-1H-azepino[4,5-b]indole]",69.4,9,103,–,–,–,–,–
"[2H]C([2H])([2H])N1CCc2[nH]c3cc(OC)ccc3c2CC1 [Compound 2, 8-methoxy-3-(trideuteriomethyl)-2,4,5,6-tetrahydro-1H-azepino[4,5-b]indole]",38,-0.4,94.5,differences in half-life and intrinsic clearance,1.4,16.6,14.9,–
"COc1ccc2c3c([nH]c2c1)CCN(CCN(C)C)CC3 [Compound 144, 2-(8-methoxy-2,4,5,6-tetrahydro-1H-azepino[4,5-b]indol-3-yl)-N,N-dimethyl-ethanamine]",-0.7,-0.5,3.1,–,–,–,–,–
"O=C(O)Cc1ccccc1Nc1c(Cl)cccc1Cl [Diclofenac, reference compound]",–,–,–,–,–,–,182,201.9* μL/min/mg
"CN1CCc2[nH]c3cc(C#N)ccc3c2CC1 [Compound 136, 3-methyl-2,4,5,6-tetrahydro-1H-azepino[4,5-b]indole-8-carbonitrile]",41.8,-1,98.6,–,–,–,–,–
"C[C@]12CC[C@H]3[C@@H](CCC4=CC(=O)CC[C@@]43C)[C@@H]1CC[C@@H]2O [Testosterone, reference compound]",–,–,–,–,–,114,103,–
"CN1CCc2[nH]c3cc(S(F)(F)(F)(F)F)ccc3c2CC1 [Compound 109, pentafluoro-(3-methyl-2,4,5,6-tetrahydro-1H-azepino[4,5-b]indol-8-yl)-λ^6-sulfane]",13.7,8.5,101,–,–,–,–,–
"CN1CCc2[nH]c3c4c(ccc3c2CC1)OCC4 [Compound 124, 8-methyl-1,2,6,7,8,9,10,11-octahydroazepino[4,5-b]furo[2,3-g]indole]",83.8,-0.7,93.1,–,–,–,–,–
"c1cc2c3c([nH]c2cc1OC1CC1)CCN(C1CC1)CC3 [Compound 165, 8-cyclopropoxy-3-cyclopropyl-1,2,3,4,5,6-hexahydroazepino[4,5-b]indole]",-2.7,0.9,71.7,–,–,–,–,–
"CN1CCc2[nH]c3c4c(ccc3c2CC1)OCCC4 [Compound 122, 9-methyl-2,3,7,8,9,10,11,12-octahydro-1H-azepino[4,5-b]pyrano[2,3-g]indole]",54,-0.8,98.9,–,–,–,–,–
"[2H]C([2H])([2H])N1CCc2[nH]c3cc(OC4CC4)ccc3c2CC1 [Compound 145, 8-cyclopropoxy-3-(^2H3)methyl-1H,2H,3H,4H,5H,6H-azepino[4,5-b]indole]",5.8,1.5,101,–,–,–,–,–
"CN1CCc2[nH]c3cccc(S(F)(F)(F)(F)F)c3c2CC1 [Compound 110, pentafluoro-(3-methyl-2,4,5,6-tetrahydro-1H-azepino[4,5-b]indol-10-yl)-λ^6-sulfane]",8.9,4,103,–,–,–,–,–
"COc1ccc2c3c([nH]c2c1)CCN(CCO)CC3 [Compound 140, 2-(8-methoxy-2,4,5,6-tetrahydro-1H-azepino[4,5-b]indol-3-yl)ethanol]",48.1,-0.9,93.8,–,–,–,–,–
"CN1CCc2[nH]c3cc4c(cc3c2CC1)OCC4 [Compound 166, 8-methyl-2,3,5,6,7,8,9,10-octahydroazepino[4,5-b]furo[2,3-f]indole]",53.5,0.3,97.9,–,–,–,–,–
"Cc1cc2c(cc1Cl)N(C(=O)Nc1ccc(Oc3cccnc3C)nc1)CC2 [SB242084, reference compound]",–,–,101,–,–,–,–,–
